The record followed here is BindingDB's records for doi:10.1046/j.1471-4159.2002.00817.x (Uppsala University, 2002).

pKi: −log10 of the molar value.

Experiment [1] deals with T1, Neuropeptide Y receptor type 5 (Gallus gallus, UniProt Q8QFM2).
T1 sequence (Q8QFM2 whole entry): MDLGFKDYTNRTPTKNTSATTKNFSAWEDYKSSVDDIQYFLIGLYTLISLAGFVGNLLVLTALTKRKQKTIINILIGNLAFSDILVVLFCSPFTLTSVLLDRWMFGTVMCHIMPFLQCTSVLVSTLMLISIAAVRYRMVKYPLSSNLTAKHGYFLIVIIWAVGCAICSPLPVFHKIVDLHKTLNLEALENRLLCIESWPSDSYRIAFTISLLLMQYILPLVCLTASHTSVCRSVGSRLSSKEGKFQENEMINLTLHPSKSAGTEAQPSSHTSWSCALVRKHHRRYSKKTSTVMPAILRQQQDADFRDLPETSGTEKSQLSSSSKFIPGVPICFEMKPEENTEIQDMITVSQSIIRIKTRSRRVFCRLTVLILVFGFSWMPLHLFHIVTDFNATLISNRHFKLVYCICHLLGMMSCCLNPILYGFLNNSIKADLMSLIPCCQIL

Experiment [2] concerns the target T2, Neuropeptide Y receptor type 1 (Gallus gallus, UniProt Q8QFM1).
T2 sequence (Q8QFM1 whole entry): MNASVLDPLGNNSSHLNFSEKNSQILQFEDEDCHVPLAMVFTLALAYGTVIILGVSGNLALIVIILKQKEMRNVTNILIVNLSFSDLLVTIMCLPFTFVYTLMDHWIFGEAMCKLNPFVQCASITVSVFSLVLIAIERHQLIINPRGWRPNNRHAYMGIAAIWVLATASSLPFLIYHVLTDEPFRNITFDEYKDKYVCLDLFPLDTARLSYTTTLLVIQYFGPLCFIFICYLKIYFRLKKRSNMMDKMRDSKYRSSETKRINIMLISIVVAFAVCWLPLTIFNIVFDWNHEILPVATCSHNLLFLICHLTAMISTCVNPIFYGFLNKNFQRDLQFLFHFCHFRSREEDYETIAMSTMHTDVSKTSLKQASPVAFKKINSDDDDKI

One may read the pKi as the negative decadic logarithm of the Ki, by convention in mol/L. For `N=C(N)NCCCC(NC(=O)C(c1ccccc1)c1ccccc1)C(=O)NCc1ccc(O)cc1` (stereo unspecified) [NSC_5311023], in experiment [1], the pKi is under 5.00. As for `CN(C)CC1CCC(CN=C(N)c2ccc(CC(NC(=O)C(Cc3ccccc3)NS(=O)(=O)c3ccc4ccccc4c3)C(=O)N3CCCC3)cc2)CC1` (stereo unspecified) [CAS_5312150], the pKi in experiment [2] and in experiment [1] was under 5.00 in each case. With `CC[C@H](C)[C@H](NC(=O)[C@H](Cc1ccc(O)cc1)NC(=O)[C@H](CCCNC(=N)N)NC(=O)[C@H](CCCNC(=N)N)NC(=O)[C@H](CC(C)C)NC(=O)[C@H](CC(=O)O)NC(=O)[C@H](C)NC(=O)[C@H](C)NC(=O)[C@H](Cc1ccc(O)cc1)NC(=O)[C@H](CCC(N)=O)NC(=O)[C@H](C)NC(=O)[C@H](CCSC)NC(=O)[C@H](CCC(N)=O)NC(=O)[C@H](CCC(=O)O)NC(=O)[C@@H]1CCCN1C(=O)[C@@H](NC(=O)[C@H](C)NC(=O)[C@H](CC(N)=O)NC(=O)[C@H](CC(=O)O)NC(=O)CNC(=O)[C@@H]1CCCN1C(=O)[C@H](Cc1ccc(O)cc1)NC(=O)[C@@H](NC(=O)[C@@H]1CCCN1C(=O)[C@H](CCC(=O)O)NC(=O)[C@H](CC(C)C)NC(=O)[C@@H]1CCCN1C(=O)[C@H](C)N)C(C)C)[C@@H](C)O)C(=O)N[C@@H](CC(N)=O)C(=O)N[C@@H](CCSC)C(=O)N[C@@H](CC(C)C)C(=O)N[C@H](C(=O)N[C@@H](CCCNC(=N)N)C(=O)N1CCC[C@H]1C(=O)N[C@@H](CCCNC(=N)N)C(=O)N[C@@H](Cc1ccc(O)cc1)C(N)=O)[C@@H](C)O` [CAS_59763-91-6], the pKi was under 5.00 in experiment [2] and 9.32 in experiment [1]. Consider `NC(N)=NCCCC(NC(=O)CC1(CC(=O)N2CCN(C3c4ccccc4NC(=O)c4ccccc43)CC2)CCCC1)C(=O)NCCn1c(=O)n(-c2ccccc2)n(-c2ccccc2)c1=O` (stereo unspecified) [NSC_5311024], for which the pKi in experiment [2] is under 5.00. For the compound “H-GPSQPTYPGDDAPVEDLIRFYNDLQQYLNVVTRHRY-NH2 [NSC_0]”, the pKi in experiment [2] is under 5.00; in experiment [1], 8.33. The compound `Nc1nc(NC[C@H]2CC[C@H](CNS(=O)(=O)c3cccc4ccccc34)CC2)nc2ccccc12` [CGP 71683] gave a pKi in experiment [2] of under 5.00. In the case of `O=c1oc2ccccc2c(O)c1C1CC(c2ccc(-c3ccccc3)cc2)Cc2ccccc21` (stereo unspecified) [NSC_41735], the negative-log Ki (pKi) in experiment [2] is under 5.00; in experiment [1] it was 9.09.
